The source of these data is ChEMBL document CHEMBL1133025, “The utilization of a unified pharmacophore query in the discovery of new antagonists of the adenosine receptor family” (Bioorg Med Chem Lett, 2000).

The target of assay [1] is T1, Adenosine receptor A3 (Homo sapiens) (UniProt P0DMS8).
T1 sequence (whole entry): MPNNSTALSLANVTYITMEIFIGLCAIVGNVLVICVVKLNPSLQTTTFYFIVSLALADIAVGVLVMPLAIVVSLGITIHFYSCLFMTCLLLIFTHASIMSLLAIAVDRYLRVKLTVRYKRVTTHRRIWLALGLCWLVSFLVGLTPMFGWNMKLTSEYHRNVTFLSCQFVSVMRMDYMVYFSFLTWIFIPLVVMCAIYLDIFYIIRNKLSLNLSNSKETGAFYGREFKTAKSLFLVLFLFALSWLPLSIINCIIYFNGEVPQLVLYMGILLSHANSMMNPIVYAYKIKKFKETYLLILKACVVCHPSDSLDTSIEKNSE
Description: In vitro inhibitory activity against human Adenosine A3 receptor at 10e-5 M.

Assay [2] concerns the target T2, Adenosine receptor A3 (Homo sapiens, UniProt P0DMS8).
T2 sequence (P0DMS8 whole entry): T1 sequence (whole entry)
As to the kind of experiment: In vitro binding affinity against human Adenosine A3 receptor.

Assay [3] addresses T2, Adenosine receptor A3. Description: Inhibition of [35S]GTP-gamma-S, binding stimulated by 20 uM 5''-N-ethyluronamidoadenosine (NECA) in membranes of HEK293 cells expressing human Adenosine A3 receptor. Type of assay: functional, cell membranes.
Assay [4] has as its target T2, Adenosine receptor A3. As to the kind of experiment: Inhibition of [35S]GTP-gamma-S, binding stimulated by 5 uM 5''-N-ethyluronamidoadenosine (NECA) in membranes of HEK293 cells expressing human Adenosine A3 receptor. Type of assay: functional, cell membranes. Background: GTPγS resists hydrolysis and so accumulates on activated G proteins.

In general, inhibition refers to the drop in the measured response relative to a control, in per cent. The low end stands for little suppression, the high end for strong suppression. Compound `COc1ccc(N(CC(=O)Nc2cccc(Cl)c2C)S(=O)(=O)c2ccccc2)cc1` came in with an inhibition in assay [1] of 65%.

What is called Ki is a measure of affinity in units of concentration, obtained from inhibition or displacement. Lower therefore signals tighter binding. The term IC50 denotes the concentration needed to halve the response being measured. Read a high IC50 as lower potency. `COc1ccc(-c2csc(NC3OC(=O)c4c3ccc(OC)c4OC)n2)cc1` (stereo unspecified): affinity in assay [2] was put at a Ki of 1300 nM. This compound also had a concentration for half-maximal inhibition (IC50) in assay [3] of 255 nM.

Compound `CCSc1nnc2c(n1)OC(c1ccc(-c3ccc(Cl)cc3)o1)Nc1ccccc1-2` (stereo unspecified) displayed an inhibition in assay [1] of 60%.

For the compound `CC(NC(=O)OCc1ccccc1)C(=O)Oc1cc(O)c2c(=O)cc(-c3ccccc3)oc2c1` (stereo unspecified), the inhibition in assay [1] was determined as 60%.

In assay [1], `O=C(NCCc1c[nH]c2ccc(OCc3ccccc3)cc12)c1ccco1` displayed an inhibition of 70%.

In turn, `CCOC(=O)c1c(NC(=O)Cc2ccccc2)sc2c1CCN(C(=O)OCC)C2` came in with an inhibition constant Ki in assay [2] of 600 nM. Also, the IC50 in assay [3] is 186 nM.

With `Cc1ccc(N(CC(=O)N/N=C/c2ccccc2O)S(=O)(=O)c2ccccc2)cc1`, the inhibition in assay [1] was determined as 65%.

Regarding `CCOC(=O)CNC(c1ccccc1)c1cc(Br)ccc1NC(=O)c1ccccc1` (stereo unspecified), the half-maximal inhibitory concentration (IC50) in assay [4] was found to be 407 nM. In assay [2], the Ki was 3100 nM.
